US4692511A, “Peptide antagonists for the C5a anaphylatoxin” (Immunetech Pharmaceuticals, priority 1984, dated 1987)
Peptide text beside a SMILES is read from it.

Target: T1, C5a receptor (Homo sapiens, UniProt P21730)
T1 sequence (P21730 1-350): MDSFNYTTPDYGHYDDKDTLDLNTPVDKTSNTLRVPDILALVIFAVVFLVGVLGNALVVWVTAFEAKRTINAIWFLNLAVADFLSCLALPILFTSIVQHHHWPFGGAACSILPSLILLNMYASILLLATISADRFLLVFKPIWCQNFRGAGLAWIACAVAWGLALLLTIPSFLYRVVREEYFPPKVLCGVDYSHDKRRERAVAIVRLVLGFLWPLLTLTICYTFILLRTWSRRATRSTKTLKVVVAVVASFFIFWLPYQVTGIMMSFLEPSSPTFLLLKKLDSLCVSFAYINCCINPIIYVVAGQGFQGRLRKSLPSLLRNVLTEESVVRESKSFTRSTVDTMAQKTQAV
Experiment: C5a receptor blocking activity of the peptides of the invention

- C5a blocking activity: displays C5a blocking activity
SMILES: C[C@H](NC(=O)CNC(=O)[C@@H](N)CC(=O)O)C(=O)O [Asp-Gly-Ala] (H-Asp-Gly-Ala-OH)
